Data as given in patent publication US10544150B2, “NK-3 receptor selective antagonist compounds, pharmaceutical composition and methods for use in NK-3 receptors mediated disorders” (Ogeda SA, priority 2010, dated 2020).

Biological target: human NK-3 receptor (Homo sapiens (Human), UniProt P29371)
Assay: 3H-SB222200 binding competition assay with human NK-3 receptor
Details: 3H-SB222200 displacement, CHO cell membranes expressing human NK3 receptor; read-out: Ki range
In short: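 Membranes from CHO cells expressing human NK3 receptor incubated with 5 nM 3H-SB222200 and test compound in HEPES 25 mM/NaCl 0.1M/CaCl2 1 mM/MgCl2 5 mM/BSA 0.5%/saponin 10 μg/ml, pH 7.4. Bound radioligand counted after filtration; Ki calculated, reported in bands (+++ <500 nM to # >5 μM).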

human NK-3 receptor, sequence (P29371 whole entry): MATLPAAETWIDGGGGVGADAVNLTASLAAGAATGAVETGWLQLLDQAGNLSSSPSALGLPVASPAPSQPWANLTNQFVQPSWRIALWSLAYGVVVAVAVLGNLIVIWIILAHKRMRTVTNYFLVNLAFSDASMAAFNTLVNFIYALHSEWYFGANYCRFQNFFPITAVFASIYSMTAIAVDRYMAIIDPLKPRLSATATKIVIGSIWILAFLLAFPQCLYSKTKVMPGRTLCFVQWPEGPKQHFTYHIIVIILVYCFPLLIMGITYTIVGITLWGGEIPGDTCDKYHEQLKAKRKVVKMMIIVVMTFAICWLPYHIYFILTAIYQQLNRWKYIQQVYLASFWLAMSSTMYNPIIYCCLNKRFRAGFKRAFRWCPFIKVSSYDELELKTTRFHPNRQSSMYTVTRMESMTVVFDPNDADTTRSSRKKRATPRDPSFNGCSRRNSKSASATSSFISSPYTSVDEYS

| SMILES | Ki [nM] |
| --- | --- |
| CC(C)Cc1nc(-c2nnc3n2CCN(C(=O)c2ccc(F)cc2)C3)cs1 [Compound 259, (4-fluorophenyl)(3-(2-isobutylthiazol-4-yl)-5,6-dihydro-[1,2,4]triazolo[4,3-a]pyrazin-7(8H)-yl)methanone] | 1000 to 5000 |
| CC1(C)CN(c2nc(-c3nnc4n3CCN(C(=O)c3ccc(-c5cccs5)cc3)C4)cs2)CCO1 [Compound 266, (3-(2-(2,2-dimethylmorpholino)thiazol-4-yl)-5,6-dihydro-[1,2,4]triazolo[4,3-a]pyrazin-7(8H)-yl)(4-(thiophen-2-yl)phenyl)methanone] | < 500 |
| O=C(c1ccc(-c2cccs2)cc1)N1CCn2c(nnc2-c2cc(-c3ccccc3)n[nH]2)C1 [Compound 267, (3-(3-phenyl-1H-pyrazol-5-yl)-5,6-dihydro-[1,2,4]triazolo[4,3-a]pyrazin-7(8H)-yl)(4-(thiophen-2-yl)phenyl)methanone] | < 500 |
| Cc1ccsc1-c1ccc(C(=O)N2CCn3c(-c4csc(-c5ccc(F)cc5)n4)nnc3C2C)cc1 (stereo not drawn) [Compound 268, (3-(2-(4-fluorophenyl)thiazol-4-yl)-8-methyl-5,6-dihydro-[1,2,4]triazolo[4,3-a]pyrazin-7(8H)-yl)(4-(3-methylthiophen-2-yl)phenyl)methanone] | < 500 |
| O=C(c1ccc(F)cc1)N1CCn2c(nnc2-c2cc(-c3ccccc3)n[nH]2)C1 [Compound 269, (4-fluorophenyl)(3-(3-phenyl-1H-pyrazol-5-yl)-5,6-dihydro-[1,2,4]triazolo[4,3-a]pyrazin-7(8H)-yl)methanone] | 500 to 1000 |
| O=C(c1ccc(F)cc1)N1CCn2c(nnc2-c2csc(-c3ccccc3O)n2)C1 [Compound 271, (4-fluorophenyl)(3-(2-(2-hydroxyphenyl)thiazol-4-yl)-5,6-dihydro-[1,2,4]triazolo[4,3-a]pyrazin-7(8H)-yl)methanone] | < 500 |
| CC1CN(c2nc(-c3nnc4n3CCN(C(=O)c3ccc(-c5cccs5)cc3)C4)cs2)CCO1 (stereo not drawn) [Compound 273, (3-(2-(2-methylmorpholino)thiazol-4-yl)-5,6-dihydro-[1,2,4]triazolo[4,3-a]pyrazin-7(8H)-yl)(4-(thiophen-2-yl)phenyl)methanone] | < 500 |

More lines, now with the values ahead:

| Ki [nM] | SMILES |
| --- | --- |
| < 500 | O=C(c1ccc(F)cc1)N1CCn2c(cnc2-c2csc(-c3ccc(F)cc3)n2)C1 [Compound 260, (4-fluorophenyl)(3-(2-(4-fluorophenyl)thiazol-4-yl)-5,6-dihydroimidazo[1,5-a]pyrazin-7(8H)-yl)methanone] |
| < 500 | CC1CN(c2nc(-c3nnc4n3CCN(C(=O)c3ccc(-c5cccs5)cc3)C4)cs2)C(C)CO1 (stereo not drawn) [Compound 261, (3-(2-(2,5-dimethylmorpholino)thiazol-4-yl)-5,6-dihydro-[1,2,4]triazolo[4,3-a]pyrazin-7(8H)-yl)(4-(thiophen-2-yl)phenyl)methanone] |
| < 500 | O=C(c1ccc(-c2cccs2)cc1)N1CCn2c(nnc2-c2csc(-c3ccccc3O)n2)C1 [Compound 262, (3-(2-(2-hydroxyphenyl)thiazol-4-yl)-5,6-dihydro-[1,2,4]triazolo[4,3-a]pyrazin-7(8H)-yl)(4-(thiophen-2-yl)phenyl)methanone] |
| < 500 | O=C(c1ccc(-c2cccs2)cc1)N1CCn2c(nnc2-c2csc(N3CCC(F)(F)CC3)n2)C1 [Compound 263, (3-(2-(4,4-difluoropiperidin-1-yl)thiazol-4-yl)-5,6-dihydro-[1,2,4]triazolo[4,3-a]pyrazin-7(8H)-yl)(4-(thiophen-2-yl)phenyl)methanone] |
| < 500 | CC1CN(c2nc(-c3nnc4n3CCN(C(=O)c3ccc(-c5cccs5)cc3)C4)cs2)CC(C)O1 (stereo not drawn) [Compound 265, (3-(2-(2,6-dimethylmorpholino)thiazol-4-yl)-5,6-dihydro-[1,2,4]triazolo[4,3-a]pyrazin-7(8H)-yl)(4-(thiophen-2-yl)phenyl)methanone] |
